The record followed here is patent US8735414B2 (priority 2009, dated 2014).

The term IC50 denotes the midpoint of a concentration-inhibition curve. One may read the melting point as the temperature, or range, at which the solid turns liquid.

Data set [1] relates to bicistronic HCV replicon (replicon RNA, GenBank Accession No. AJ242654). In words: HCV Replicon Assay. The conditions noted are these: Hepatitis C virus, 72 h, read-out: Replicon IC50. It is filed as cell-based. (In general: In antiviral work, replicon cells carry a viral genome segment that copies itself.)

On to `Cc1ccc2c(C#N)c(-c3ccc(NS(=O)(=O)C4CC4)cn3)n(C3CCCC3)c2c1` [compound 296, N-[6-(3-cyano-1-cyclopentyl-6-methyl-1H-indol-2-yl)pyridin-3-yl]cyclopropanesulfonamide], for which the melting point lay within 241 to 245 °C. In data set [1], the IC50 was 2000 to 5000 nM.
With `C[C@H](NS(=O)(=O)c1ccc(-c2c(C#N)c3ccc(OC(F)F)cc3n2-c2ccccc2)nc1)C(F)(F)F` [compound 553, 6-[3-cyano-6-(difluoromethoxy)-1-phenyl-1H-indol-2-yl]-N-[(2S)-1,1,1-trifluoropropan-2-yl]pyridine-3-sulfonamide], the melting point fell in the range of 209 to 211 °C. The IC50 in data set [1] is less than 500 nM.
On the same counts, the results for `N#Cc1c(-c2ncc(S(=O)(=O)NC(CF)CF)cn2)n(C2CCCC2)c2ccc(F)cc12` [compound 240, 2-(3-cyano-1-cyclopentyl-5-fluoro-1H-indol-2-yl)-N-(1,3-difluoropropan-2-yl)pyrimidine-5-sulfonamide] are 201 to 206 °C and less than 500 nM.
In the same order, the values of `Cc1ccc2c(C#N)c(-c3ncc(S(=O)(=O)NC(CF)CF)cn3)n(C3CCC3)c2c1F` [compound 557, 2-(3-cyano-1-cyclobutyl-7-fluoro-6-methyl-1H-indol-2-yl)-N-(1,3-difluoropropan-2-yl)pyrimidine-5-sulfonamide] are 191 to 198 °C and less than 500 nM.
In the same order, the values of `C[C@H](NS(=O)(=O)c1ccc(-c2cc3cc(F)c(O)cc3n2C2CCC2)nc1)C(F)(F)F` [compound 728, 6-(1-cyclobutyl-5-fluoro-6-hydroxy-1H-indol-2-yl)-N-[(2S)-1,1,1-trifluoropropan-2-yl]pyridine-3-sulfonamide] are 193 to 195 °C and 2000 to 5000 nM.
As for `C[C@H](NS(=O)(=O)c1cnc(-c2c(C(N)=O)c3ccc(OC(F)F)cc3n2C2CCCCC2)nc1)C(F)(F)F` [compound 746, 1-cyclohexyl-6-(difluoromethoxy)-2-(5-{[(2S)-1,1,1-trifluoropropan-2-yl]sulfamoyl}pyrimidin-2-yl)-1H-indole-3-carboxamide], the melting point lay in the range of 217 to 219 °C. The IC50 in data set [1] is less than 500 nM.
On the same counts, the results for `Cc1ccnc(-n2c(-c3ccc(S(=O)(=O)N[C@@H](C)C(F)(F)F)cn3)c(C(N)=O)c3cc(F)c(C)cc32)n1` [compound 905, 5-fluoro-6-methyl-1-(4-methylpyrimidin-2-yl)-2-(5-{[(2S)-1,1,1-trifluoropropan-2-yl]sulfamoyl}pyridin-2-yl)-1H-indole-3-carboxamide] are 205 to 210 °C and less than 500 nM.
In the same order, the values of `Cc1cc2c(cc1F)c(C(=O)NC(C)C)c(-c1ccc(S(=O)(=O)N[C@@H](C)C(F)(F)F)cn1)n2C1CCCC1` [compound 763, 1-cyclopentyl-5-fluoro-6-methyl-N-(propan-2-yl)-2-(5-{[(2S)-1,1,1-trifluoropropan-2-yl]sulfamoyl}pyridin-2-yl)-1H-indole-3-carboxamide] are 234 to 236 °C and 500 to 2000 nM.
On the same counts, the results for `C[C@H](NS(=O)(=O)c1ccc(-c2c(C#N)c3ccc(C(F)F)cc3n2C2CCC2)nc1)C1CC1` [compound 335, 6-[3-cyano-1-cyclobutyl-6-(difluoromethyl)-1H-indol-2-yl]-N-[(1S)-1-cyclopropylethyl]pyridine-3-sulfonamide] are 182 to 189 °C and less than 500 nM.
Regarding `N#Cc1c(-c2ccc(S(=O)(=O)NC3(C(F)(F)F)CCC3)cn2)n(C2CCCC2)c2cc(OC(F)F)ccc12` [compound 588, 6-[3-cyano-1-cyclopentyl-6-(difluoromethoxy)-1H-indol-2-yl]-N-[1-(trifluoromethyl)cyclobutyl]pyridine-3-sulfonamide], the melting point fell in the range of 172 to 176 °C. Further, the half-inhibitory concentration (IC50) in data set [1] was less than 500 nM.
The molecule `Cc1ccc(-n2c(-c3ccc(S(=O)(=O)N[C@@H](C)C(F)(F)F)cn3)c(C#N)c3cc(F)c(C)cc32)s1` [compound 1031, 6-[3-cyano-5-fluoro-6-methyl-1-(5-methylthiophen-2-yl)-1H-indol-2-yl]-N-[(2S)-1,1,1-trifluoropropan-2-yl]pyridine-3-sulfonamide] came in with a melting point of 246.8 to 249.4 °C. Moreover, the IC50 in data set [1] is less than 500 nM.
The molecule `C[C@@H](NS(=O)(=O)c1ccc(-c2c(C#N)c3cc(Cl)ccc3n2C2CCCCC2)nc1)C(F)(F)F` [compound 461, 6-(5-chloro-3-cyano-1-cyclohexyl-1H-indol-2-yl)-N-[(2R)-1,1,1-trifluoropropan-2-yl]pyridine-3-sulfonamide] yielded a melting point of 226 to 227 °C. Besides, the IC50 in data set [1] is less than 500 nM.
On the same counts, the results for `Cc1ccc2c(C#N)c(-c3ccc(S(=O)(=O)N[C@H](C)C(F)(F)F)cn3)n(C3CCC3)c2c1` [compound 192, 6-(3-cyano-1-cyclobutyl-6-methyl-1H-indol-2-yl)-N-[(2R)-1,1,1-trifluoropropan-2-yl]pyridine-3-sulfonamide] are 204 to 208 °C and less than 500 nM.
In the same order, the values of `Cc1cc2c(cc1F)c(C(N)=O)c(-c1ccc(S(=O)(=O)N[C@H](C)C(F)(F)F)cn1)n2C1CCC1` [compound 732, 1-cyclobutyl-5-fluoro-6-methyl-2-(5-{[(2R)-1,1,1-trifluoropropan-2-yl]sulfamoyl}pyridin-2-yl)-1H-indole-3-carboxamide] are 195 to 197 °C and less than 500 nM.
On the same counts, the results for `Cc1ccc2c(C#N)c(-c3ncc(S(=O)(=O)N[C@@H](C)C(F)(F)F)cn3)n(-c3ccccn3)c2c1` [compound 475, 2-[3-cyano-6-methyl-1-(pyridin-2-yl)-1H-indol-2-yl]-N-[(2S)-1,1,1-trifluoropropan-2-yl]pyrimidine-5-sulfonamide] are 210 to 212 °C and less than 500 nM.
Take `N#Cc1c(-c2ncc(S(=O)(=O)NC(CF)CF)cn2)n(C2CCCC2)c2cc(F)ccc12` [compound 166, 2-(3-cyano-1-cyclopentyl-6-fluoro-1H-indol-2-yl)-N-(1,3-difluoropropan-2-yl)pyrimidine-5-sulfonamide]: the melting point was 167 to 169 °C. The IC50 in data set [1] is less than 500 nM.
On the same counts, the results for `CCc1cc2c(cc1F)c(C#N)c(-c1ccc(S(=O)(=O)N[C@@H](C)C(F)(F)F)cn1)n2-c1nccs1` [compound 935, 6-[3-cyano-6-ethyl-5-fluoro-1-(1,3-thiazol-2-yl)-1H-indol-2-yl]-N-[(2S)-1,1,1-trifluoropropan-2-yl]pyridine-3-sulfonamide] are 187 to 191 °C and less than 500 nM.
On the same counts, the results for `Cc1ccc2c(C#N)c(-c3ccc(S(=O)(=O)NC4(C(F)(F)F)CCC4)cn3)n(C3CCCC3)c2c1` [compound 253, 6-(3-cyano-1-cyclopentyl-6-methyl-1H-indol-2-yl)-N-[1-(trifluoromethyl)cyclobutyl]pyridine-3-sulfonamide] are 214 to 218 °C and less than 500 nM.
On the same counts, the results for `CNC(=O)c1c(-c2ncc(S(=O)(=O)NC(C)(C)C)cn2)n(C2CCC2)c2cc(C)c(F)cc12` [compound 802, 2-[5-(tert-butylsulfamoyl)pyrimidin-2-yl]-1-cyclobutyl-5-fluoro-N,6-dimethyl-1H-indole-3-carboxamide] are 211 to 213 °C and less than 500 nM.
Molecule `CCc1cc2c(cc1F)c(C#N)c(-c1ncc(S(=O)(=O)N[C@@H](C)C(F)(F)F)cc1C)n2-c1ncccn1` [compound 867, 6-[3-cyano-6-ethyl-5-fluoro-1-(pyrimidin-2-yl)-1H-indol-2-yl]-5-methyl-N-[(2S)-1,1,1-trifluoropropan-2-yl]pyridine-3-sulfonamide] came in with a melting point of 192 to 198 °C. Moreover, in data set [1], the IC50 was less than 500 nM.
On the same counts, the results for `Cc1cc(F)c2c(C#N)c(-c3ccc(S(=O)(=O)N[C@@H](C)C(F)(F)F)cn3)n(C3CCC3)c2c1` [compound 627, 6-(3-cyano-1-cyclobutyl-4-fluoro-6-methyl-1H-indol-2-yl)-N-[(2S)-1,1,1-trifluoropropan-2-yl]pyridine-3-sulfonamide] are 205 to 210 °C and less than 500 nM.
Turning to `C[C@H](NS(=O)(=O)c1cnc(-c2c(C#N)c3cc(F)ccc3n2-c2ccccn2)nc1)C(F)(F)F` [compound 474, 2-[3-cyano-5-fluoro-1-(pyridin-2-yl)-1H-indol-2-yl]-N-[(2S)-1,1,1-trifluoropropan-2-yl]pyrimidine-5-sulfonamide], the melting point was in the range of 209 to 210 °C. For the same molecule, the IC50 in data set [1] was less than 500 nM.
On the same counts, the results for `C[C@H](NS(=O)(=O)c1cnc(-c2c(C#N)c3ccc(CC(F)F)cc3n2CC2CC2)nc1)C(F)(F)F` [compound 622, 2-[3-cyano-1-(cyclopropylmethyl)-6-(2,2-difluoroethyl)-1H-indol-2-yl]-N-[(2S)-1,1,1-trifluoropropan-2-yl]pyrimidine-5-sulfonamide] are 195 to 205 °C and less than 500 nM.
In the same order, the values of `CCc1cc2c(cc1F)c(C(N)=O)c(-c1ccc(S(=O)(=O)N[C@@H](C)C(F)(F)F)cn1)n2-c1ccc(F)cc1` [compound 1019, 6-ethyl-5-fluoro-1-(4-fluorophenyl)-2-(5-{[(2S)-1,1,1-trifluoropropan-2-yl]sulfamoyl}pyridin-2-yl)-1H-indole-3-carboxamide] are 210 to 217 °C and less than 500 nM.
On the same counts, the results for `Cc1c(F)cc2c(C#N)c(-c3ccc(S(=O)(=O)NC(C)(C)C(F)(F)F)cn3)n(C3CCC3)c2c1F` [compound 577, 6-(3-cyano-1-cyclobutyl-5,7-difluoro-6-methyl-1H-indol-2-yl)-N-(1,1,1-trifluoro-2-methylpropan-2-yl)pyridine-3-sulfonamide] are 180 to 187 °C and less than 500 nM.
`CCc1cc2c(cc1F)c(C#N)c(-c1ccc(S(=O)(=O)N[C@@H](C)C(F)(F)F)cn1)n2-c1ccnc(C)n1` [compound 943, 6-[3-cyano-6-ethyl-5-fluoro-1-(2-methylpyrimidin-4-yl)-1H-indol-2-yl]-N-[(2S)-1,1,1-trifluoropropan-2-yl]pyridine-3-sulfonamide] registered a melting point of 138 to 146 °C. For the same molecule, in data set [1], the IC50 was in the range of 500 to 2000 nM.
